{"source": "patent US20090247641A1", "about": "“HYDRAZONE AGENTS TO TREAT CUTANEOUS LESIONS” (priority 2005, published 2009)", "format_in_all_cases": "in vivo, human", "key": {"[1]": {"test_system": "condyloma on cervix, low risk HPV in the 6/11 category", "assay": "Treatment of condyloma and HPV infection with 0.25% A-007 gel (case report)", "protocol": "They also had atypical squamous epithelium and CIN with warts. The cervix was inflamed with squamous exo-cervical dysplasia and a warty labial growth. They were treated with 2 grams per day of 0.25% A-007 gel applied to the vagina for five days, for a total topical dose of 10 grams. […] The HPV infection was also eliminated, and was absent after 24 months of observation."}, "[2]": {"test_system": "cervical warts, CIN II, high risk HPV infection", "assay": "Treatment of cervical warts, CIN II and high risk HPV infection with 0.25% gel (case report)", "protocol": "A person had multiple abnormal pap smears with hair loss and skin changes secondary to hormonal imbalance. […] They were treated with 2 grams per day of 0.25% gel applied to the vagina for five days, for a total topical dose of 10 grams."}, "plantar warts": {"test_system": "plantar warts", "assay": "Treatment of plantar warts with A-007 0.25% gel (case report)", "description": "Prior attempts at local surgical removal of the warts had failed. […] A-007 was applied in a 0.25% gel (2 g) nightly for three nights and covered with an absorbent pad to allow maximum penetration."}}}
{"molecule": "O=[N+]([O-])c1ccc(NN=C(c2ccc(O)cc2)c2ccc(O)cc2)c([N+](=O)[O-])c1", "note": "[A-007, 4,4′-dihydroxybenzophenone-2,4-dinitrophenylhydrazone]", "values": [{"measurement": "external warty mass (labial growth)", "setting": "[1]; 2 grams per day of 0.25% A-007 gel, vagina, five days", "result": "fell off the labia"}, {"measurement": "HPV infection at follow-up", "setting": "[1]; after 24 months of observation", "result": "absent"}, {"measurement": "HPV infection status", "setting": "[1]; low risk HPV 6/11 at baseline, 2 grams per day of 0.25% A-007 gel, vagina, five days", "result": "eliminated"}, {"measurement": "cervical condyloma", "setting": "[1]; person, 2 grams per day of 0.25% A-007 gel applied to the vagina for five days, total 10 grams", "result": "disappeared"}, {"measurement": "warty lesions on cervix", "setting": "[2]; 2 grams per day of 0.25% gel, vagina, five days", "result": "disappeared"}, {"measurement": "CIN outcome", "setting": "[2]; CIN II, 2 grams per day of 0.25% gel, vagina, five days", "result": "resolved"}, {"measurement": "status at follow-up", "setting": "[2]; after 18 months of observation", "result": "stable"}, {"measurement": "HPV infection status", "setting": "[2]; high risk HPV at baseline, 2 grams per day of 0.25% gel, vagina, five days", "result": "converted to low grade"}, {"measurement": "toxicities", "setting": "[2]; person, 2 grams per day of 0.25% gel applied to the vagina for five days, total 10 grams", "result": "No toxicities were observed"}, {"measurement": "appearance of treated area", "setting": "plantar warts; 0.25% gel (2 g) nightly for three nights, after 7 days", "result": "new skin appeared which was soft with no area of induration"}, {"measurement": "recurrence of warts and induration", "setting": "plantar warts; after two months of follow-up observation", "result": "Neither the warts nor induration returned"}, {"measurement": "time until treated area began peeling and new skin appeared", "setting": "plantar warts; person, left foot, 0.25% gel (2 g) nightly for three nights under absorbent pad", "result": 7, "unit": "days"}]}
